Key:
[1] = tested on: Periodontitis; experiment: Periodontitis cases: sites with CPITN code 3+4 / code 4 pockets before and after the composition; format: in vivo, human
Text: As indicator of periodontal status pocket depth is used according to Treatment Need codes 3 and 4 in Community Periodontal Index—Treatment Needs (CPITN). This code is applied to every treated tooth or implant.
Periodontal pockets: shallow (Code 3: 4-5 mrn) and deep (Code 4: 6 mm or more).
(§1) Initial motivation and cleaning instruction, supragingival biofilm reduction by trimestrially repeated brushing in CHX solution 0.07 wt % for two weeks by the patient and tooth and pocket cleaning by ultrasonic scaling as well as covering exposed root dentine by adhesive fillings to hide protein coaggregational binding sites for anaerobic microbial species (A.a., P.g., T.d.) was administered. […]

[2] = tested on: Gingivitis, edema, mucosal inflammation; experiment: Clinical observation of oral inflammation, edema and regeneration (gingivitis, dentition difficilis, healing cap, inflamed extraction socket); format: in vivo, human
Protocol: as §1

[3] = Case 11, 4000 I.E. systemically 2 months
[4] = cases 10, 11, systemic application over 2 months

C=C1CC[C@H](O)C/C1=C/C=C1\CCC[C@]2(C)[C@@H]([C@H](C)CCCC(C)C)CC[C@@H]12 [vit D3, vitamin D3]
Code 4: severe ([1]; Case 11, 18 sites/3, 4000 I.E. systemically 2 months, before 22): 22 | edema [1, 3]: no edema | pocket regeneration code 3 [1, 3]: +33% | sensitivity [1, 3]: no sensitivity, | CPITN Code 3 + 4 Nr. ([1]; Case 11, Periodontitis, Periimplantitis, 18 sites/3, 4000 I.E. systemically 2 months, before 61): 38 | edema, inflammation and attachment loss [1, 4]: stop of edema, inflammation and attachment loss | regeneration in code 3 CPITN pockets [1, 4]: some regeneration | edema ([2]; Case 10, 4000 I.E. systemically 2 months): no edema | pockets ([2]; Case 10, Gingivitis, Mc Calls edema, 4000 I.E. systemically 2 months): Shallow pockets,

— patent US20140072657A1, “NOVEL PHARMACEUTICAL FORMULATION” (priority 2011, published 2014)
